Reference: patent US8470534B2, “Methods of predicting resistance or sensitivity to therapies for cancer” (priority 2006, dated 2013)

Tested on: MCF7 donor or siRb xenograft tumors
Assay: Nude mouse xenograft therapeutic study
Assay type: in vivo, nude mice
Conditions: for tumor response (size at 4-day intervals): E2 pellet removed
Procedure: The xenograft model system is then utilized to test the response of RB-deficient tumors to CDDP therapy. Tumors are developed in the flanks of mice by injecting MCF7 donor or siRb cells into the flanks of mice and implanting a […] (E2) pellet into the back. When tumors reached 100-110 mm^3, mice received 5 mg/kg CDDP every 4 days for 5 courses.
To assess the role of RB in the therapeutic response of MCF7 cells in vivo, the xenograft model is again employed. Upon the attainment of tumors of approximately 100-120 mm^3, mice are deprived of estrogen and treated with Tam. […] (FIG. 4F). […] All tumors are weighed upon exclusion, and RB-deficient tumors are more than 3 times heavier than control tumors following Tam therapy (FIG. 4G).
Five- to 8-week-old female ovariectomized athymic nude mice are anesthetized, and an E2 pellet (1.7 mg/pellet, 90-day release) or placebo is surgically implanted in the back. Following implantation, 200 μl of a PBS- and phenol red-free Matrigel matrix basement membrane, solution (3:1) containing 2×10^6 cells is injected subcutaneously into the flank, or contralaterally where noted. Tumor volume is measured with calipers every 4 days using the equation V=0.52 (width)^2 ×(length). In the therapeutic studies, when tumor volume reaches 100-120 mm^3, animals are placed into 1 of 3 therapeutic groups (each group containing at least 6 animals): control animals retaining the estrogen pellet, antiestrogen-treated animals, or CDDP-treated animals. Animals in the antiestrogen treatment group are anesthetized, the estrogen pellet is surgically removed, and a Tam pellet (5 mg/pellet, 60-day release) implanted. The CDDP-treated animals receive 5 mg/kg CDDP injected i.p. on a q4dx5 schedule (every 4 days for 5 courses). All animals are injected i.p. with 150 mg/kg BrdU (Sigma-Aldrich) 1 hour prior to euthanization. Xenograft tumors are weighed and fixed in 10% neutral buffered formalin, paraffin embedded, and cut into 5-ÿm sections. For immunohistochemical staining, sections are deparaffinized in xylene and rehydrated through a graded series of ethanol/water solutions. A BrdU detection kit is utilized as recommended by the manufacturer. BrdU incorporation is scored in a blinded manner, and at least 500 cells per section are counted from several random fields.

Compound: CC/C(=C(\c1ccccc1)c1ccc(OCCN(C)C)cc1)c1ccccc1 [Tam, tamoxifen]
- tumor response (size at 4-day intervals) (RB-deficient MCF7 tumors, Tam pellet): did not regress
- tumor size reached in the presence of Tam (RB-deficient MCF7 tumors, therapy started at approximately 100-120 mm^3): ~150 mm^3
- tumor response (size at 4-day intervals) (RB-proficient MCF7 tumors, Tam pellet 5 mg/pellet): regressing to nearly immeasurable sizes
- tumor weight, RB-deficient tumors relative to control tumors (following Tam therapy): more than 3 times
